Experimental data as given in article PMC4418665, “Cyclization of the Urokinase Receptor-Derived Ser-Arg-Ser-Arg-Tyr Peptide Generates a Potent Inhibitor of Trans-Endothelial Migration of Monocytes” (PLoS ONE, 2015).
Peptide text beside a SMILES is read from it.

Experiments:
FPR1 = target: T1, FPR1 (Homo sapiens, UniProt P21462); assay: Agonist-induced FPR1 internalization at 37°C, fluorescence microscopy, THP-1 cells; type: cell-based; parameters: host or cells: THP-1 human monocytic leukemia cells; conditions: excess (100 nM) unlabelled peptide 30 min at 37°C, then 10 nM FITC-fMLF 30 min at 37°C
T1 sequence (P21462 1-350): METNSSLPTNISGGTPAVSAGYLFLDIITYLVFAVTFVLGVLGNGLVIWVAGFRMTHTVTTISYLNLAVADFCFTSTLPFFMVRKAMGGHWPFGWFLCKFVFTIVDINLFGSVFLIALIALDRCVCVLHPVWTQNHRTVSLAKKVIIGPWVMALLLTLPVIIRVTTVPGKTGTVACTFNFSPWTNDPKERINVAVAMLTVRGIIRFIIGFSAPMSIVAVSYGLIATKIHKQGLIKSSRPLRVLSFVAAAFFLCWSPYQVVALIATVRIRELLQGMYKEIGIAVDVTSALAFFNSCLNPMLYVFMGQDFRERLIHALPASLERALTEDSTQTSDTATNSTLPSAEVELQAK
Method: Once documented that both SRSRY and [SRSRY] peptides compete with fMLF for binding to FPR1, we investigated the effect of [SRSRY] on the motility of monocytes. Preliminarily, we assessed whether [SRSRY] is a ligand of FPR1 on monocyte cell surface. […] (Fig 3A). When binding experiments were performed at 37°C, FPR1 appeared mainly localized within the cytoplasm, adjacent but outside the nucleus of THP-1 cells.
Fig 3 The peptide [SRSRY] binds to FPR1 on THP-1 cell surface. A. THP-1 cells (1.5 x10^6 cells/sample) were pre-incubated with diluents (None), 100 nM fMLF, 100 nM SRSRY or 100 nM [SRSRY] peptides for 60 minutes at 4°C, then exposed to 10 nM N-formyl-Nle-Leu-Phe-Nle-Tyr-Lys-fluorescein (FITC-fMLF) for additional 60 minutes at 4°C. Fluorimetric measurement of cell-associated fluorescence was assed using 485 nm excitation and 535 nm emission filters. Data are expressed as a percentage of the fluorescence associated to THP-1 cells exposed to FITC-fMLF alone (None = 100%) and represent a mean ± SD from triplicates. *Statistical significance (t-test) against None with p<0.001. B. THP-1 cells incubated with diluents (None), 100 nM fMLF, 100 nM SRSRY or 100 nM [SRSRY] peptides for 30 minutes at 37°C and exposed to 10 nM FITC-fMLF for additional 30 minutes at 37°C. Scale bar: 5 μm. Original magnifications: 630x. […]

primary macrophages = assay: Primary macrophage migration in DUNN chamber; type: cell-based, human; conditions: 10 nM peptide added to 10 nM fMLF gradient, 6 hours
Method: The ability of [SRSRY] peptide to affect THP-1 cell migration was analyzed in Boyden chambers using 10 nM fMLF or 10 nM SRSRY as chemoattractants. […] Inhibitory effect of [SRSRY] is dose-dependent, it starts in the high fM range, it seems to level off in the μM range and reaches an overall 50% reduction at 10 pM (Fig 4B). […] The mechanisms by which monocytes move when subjected to a chemoattractant gradient, involve changes in cytoskeletal organization, which provide both protrusive and contractile forces necessary for cell migration. […] A total of 100 cells/sample that translocated to the area corresponding to the ring separating the inner and outer chambers were counted and their cytoskeletal organization examined with a fluorescence-inverted microscope. […] After 6 hours incubation, a total of 100 cells/sample that translocated to the area corresponding to the ring separating the inner and outer chambers were counted. […] Data are expressed as the means ± SD of three independent experiments, performed in duplicate. *Statistical significance against None with p<0.001. […] The extent of cell migration was expressed as a percentage of the net fMLF-dependent cell migration, considered as 100%. Data are expressed as the means ± SD of three independent experiments, performed in duplicate. […]

THP-1 cells = type: cell-based, human; conditions: 10 nM peptide, 90 minutes, Boyden chamber
Method: The ability of [SRSRY] peptide to affect THP-1 cell migration was analyzed in Boyden chambers using 10 nM fMLF or 10 nM SRSRY as chemoattractants. […] Inhibitory effect of [SRSRY] is dose-dependent, it starts in the high fM range, it seems to level off in the μM range and reaches an overall 50% reduction at 10 pM (Fig 4B). […] The mechanisms by which monocytes move when subjected to a chemoattractant gradient, involve changes in cytoskeletal organization, which provide both protrusive and contractile forces necessary for cell migration. To gain some insights into the cellular effects exerted by peptide [SRSRY], PMA-differentiated THP-1 cells were grown adherent onto a glass slide, exposed to diluents (CTL), 10 nM fMLF gradient plus/minus 10 nM [SRSRY] or 10 nM [RSSYR] in a DUNN chamber for 6 hours as described, and then stained with rhodamine-phalloidin. A total of 100 cells/sample that translocated to the area corresponding to the ring separating the inner and outer chambers were counted and their cytoskeletal organization examined with a fluorescence-inverted microscope. […] Conversely, the addition of peptide [SRSRY] to the fMLF gradient reduced cell elongation and alignment with the appearance of F-actin linear distribution along the plasma membranes in the 60% of cell population (Fig 4C). In order to verify whether the inhibitory effect of [SRSRY] also occurs on primary monocytes and/or macrophages, human monocytes and macrophages were subjected to cell migration assays in Boyden and DUNN chambers, respectively. […] Unlike [RSSYR], 10 nM [SRSRY] reduced both fMLF- and SRSRY- directed monocyte migration by 50% and 49%, respectively. Next, primary macrophages were subjected to cell migration assay in DUNN chamber as above described. After 6 hours incubation, a total of 100 cells/sample that translocated to the area corresponding to the ring separating the inner and outer chambers were counted. Macrophage exposure to 10 nM fMLF elicited a considerable cell migration, reaching 230% of the basal cell migration (CTL), that was unchanged by 10 nM [[…]). […] These findings indicate that unlike linear SRSRY, the cyclic form of the chemotactic sequence of uPAR inhibits monocyte motility and prevents cytoskeletal re-organization occurring during migration of macrophages. {[…]] inhibits migration of monocytes and macrophages in a dose-dependent manner causing a marked inhibition of fMLF-dependent cytoskeletal re-organization. A. THP-1 cells (1x10^5 cells/well) were allowed to migrate for 90 minutes at 37°C, 5% CO2 in Boyden chambers toward 10 nM fMLF, or 10 nM SRSRY in the presence of diluents (None), 10 nM [RSSYR] or 10 nM [SRSRY]. […] Data are expressed as the means ± SD of three independent experiments, performed in duplicate. *Statistical significance against None with p<0.001. B. THP-1 and PMA-stimulated THP-1 cell migration toward 10 nM fMLF plus increasing concentrations of [SRSRY] in Boyden chambers. The extent of cell migration was expressed as a percentage of the net fMLF-dependent cell migration, considered as 100%. Data are expressed as the means ± SD of three independent experiments, performed in duplicate. C. Representative images of PMA-stimulated THP-1 cells allowed to migrate in a DUNN chamber toward diluents (CTL), or a fMLF chemotactic gradient, in the absence (None) or presence of 10 nM [SRSRY] or [RSSYR] peptides and stained with rhodamine-phalloidin. Scale bar: 10 μm. Original magnifications: 630x. D-E. Primary monocytes (1x10^5 cells/well) were allowed to migrate for 90 minutes at 37°C, 5% CO2 in Boyden chambers toward 10 nM fMLF (D), or 10 nM […]) in the presence of diluents (None), 10 nM [RSSYR] or 10 nM [SRSRY]. […] Data are expressed as the means ± SD of three independent experiments, performed in duplicate. *Statistical significance against None with p<0.001; **Statistical significance against None with p<0.0001. […]

internalization of fluorescent agonist in THP-1 cells (FPR1): did not exert such effect
SMILES: N=C(N)NCCC[C@@H]1NC(=O)[C@H](CCCNC(=N)N)NC(=O)[C@H](Cc2ccc(O)cc2)NC(=O)[C@H](CO)NC(=O)[C@H](CO)NC1=O [[RSSYR], [Arg-Ser-Ser-Tyr-Arg]] (cyclo(RRSSY))
effect on fMLF-directed migration of primary macrophages (primary macrophages): unchanged
reduction of THP-1 monocyte migration toward 10 nM SRSRY (THP-1 cells): did not exert any effect
reduction of THP-1 monocyte migration toward 10 nM fMLF (THP-1 cells): did not exert any effect
